According to patent US9034403B2, “Yeast extract containing γ-Glu-X or γ-Glu-X-Gly and a method for producing the same” (AJINOMOTO CO., INC., priority 2010, dated 2015):

What was measured:
[1] = system: S288C PADH1-HGT1 (Hgt1p overproducing strain) and S288C; assay: Peptide uptake of Hgt1p overproducing strain and parental strain S288C, intracellular content on dry weight cell; type: cell-based, Saccharomyces cerevisiae
Description: (§1) One loop of the S288C strain was inoculated into SD medium (50 ml in a 500 ml-volume Sakaguchi flask), and cultured at 30° C. for 24 hours with shaking at a velocity of 120 rpm. Absorbance of the obtained culture broth was measured, the culture broth was inoculated into SD medium (400 ml in a 2 L-volume conical flask with baffle fins, two or more flasks) so that OD660 was 0.01 at the start of the culture, and culture was performed at 30° C. for 19 hours with shaking by rotation at a velocity of 120 rpm. After 19 hours, γ-Glu-Val-Gly aqueous solutions of various concentrations were added to obtain predetermined concentrations, and the culture was continued for 1 hour. Using these culture broths, the γ-Glu-Val-Gly content in dry cells was calculated in the same manner as in Example 2. Furthermore, the solid content of the extract was calculated, and the amount of γ-Glu-Val-Gly in the solid content was also calculated.
The S288C PADH1-HGT1, Hgt1p overproducing strain obtained in Example 12, and its parental strain S288C, were evaluated for their ability to take up γ-Glu-Val-Gly in the same manners as described in Example 4. The amount of γ-Glu-Val-Gly added into the medium was 100 ppm as a final concentration. As a result, intracellular content of γ-Glu-Val-Gly in S288C on the dry weight cell was about 0.9%, but intracellular content of γ-Glu-Val-Gly in S288C PADH1-HGT1 on the dry weight cell was about 4.9%.
S288C PADH1-HGT1, Hgt1p overproducing strain obtained in Example 12, and its parental strain S288C were evaluated for their γ-Glu-nVal-Gly uptake abilities in the same manners as described in Example 4 and Example 13. The amount of γ-Glu-nVal-Gly added to the medium was 100 ppm as a final concentration.

[2] = system: Saccharomyces cerevisiae S288C strain; assay: Addition of peptide to medium of S288C strain; peptide content in dry cells and in extract by LC-MS/MS; type: cell-based
Description: Absorbance of the obtained culture broth was measured, the culture broth was inoculated into SD medium (400 ml in a 2 L-volume conical flask with baffle fins, a pluratity of flasks) so that OD660 was 0.01 at the start of the culture (absorbance was measured by using DU640 SPECTROPHTOMETER, BECKMAN COULTER), and culture was performed at 30° C. for 19 hours with shaking by rotation at a velocity of 120 rpm. From the obtained culture broth, 400 OD units of the cells (1 OD unit is defined as cells contained in 1 ml of culture broth of which OD660 is 1) were collected by centrifugal separation. The supernatant was removed as much as possible, and the residual cells were suspended in 45 ml of Milli-Q water. The cells were collected again by centrifugal separation, and resuspended in 45 ml of Milli-Q water. By repeating this operation 3 times in total, the medium was completely removed from the cells. The washed cells were suspended in about 1.5 ml of Milli-Q water, and the suspension was heated at 70° C. for 10 minutes. By this step, the extractable components contained in the cells were extracted. Then, the extract and the cell residue were separated by centrifugation.
Cell debris were removed from the extract using a centrifugal filtration membrane of 10 kDa (Amicon Ultra—0.5 mL 10K, MILLIPORE, Catalogue Number UFC501096)), the obtained fraction was derivatized with the AQC reagent in the same manner as that used in Example 1, and γ-Glu-Val-Gly and γ-Glu-Val were measured by LC-MS/MS. Separately, the amount of GSH in the cells was measured in a conventional manner (GSH in the extract was derivatized by using a fluorescence reagent ABD-F that binds to thiol group, separated and quantified by HPLC). Furthermore, dry cell weight was measured after the washed cells were dried at 104° C. for 4 hours. From the amounts of γ-Glu-Val-Gly and γ-Glu-Val in the extract prepared from the cells that was contained in a certain volume of culture broth and dry cell weight measured as described above, the amount of these peptides based on weight of dried cells was calculated. […]
as §1, with “calculated. […]” for “calculated.”
The cells were collected from the total culture broth, and washed in the same manner as that of Example 2. The washed cells in an amount of 400 OD units were suspended in 1.5 ml of Milli-Q water. This suspension was maintained at 70° C. for 10 minutes to produce an extract from the yeast cells. Furthermore, the suspension was centrifuged to remove the cell residues and thereby collect only the extract. The γ-Glu-Val-Gly concentration of this extract (extract of addition experiment) was measured to be about 300 ppm, and solid content was about 1%. The γ-Glu-Val-Gly concentration in an extract prepared in the same way but without adding γ-Glu-Val-Gly to the culture broth (extract of no addition experiment) was below the quantitation limit, and solid content was about 1%.
One loop of the S288C strain was inoculated into SD medium (50 ml in a 500 ml-volume Sakaguchi flask), and cultured at 30° C. for 24 hours with shaking at a velocity of 120 rpm. […]

[3] = 0.01 ppm γ-Glu-Val-Gly added to medium after 19 hours, culture continued 1 hour
[4] = 0.1 ppm γ-Glu-Val-Gly added to medium after 19 hours, culture continued 1 hour
[5] = 1 ppm γ-Glu-Val-Gly added to medium after 19 hours, culture continued 1 hour
[6] = 5 ppm γ-Glu-Val-Gly added to medium after 19 hours, culture continued 1 hour
[7] = 10 ppm γ-Glu-Val-Gly added to medium after 19 hours, culture continued 1 hour
[8] = 100 ppm γ-Glu-Val-Gly added to medium after 19 hours, culture continued 1 hour

For CC(C)[C@H](NC(=O)CC[C@H](N)C(=O)O)C(=O)NCC(=O)O [γ-Glu-Val-Gly], the “intracellular content of γ-Glu-Val-Gly on the dry weight cell” value (“intracellular content of γ-Glu-Val-Gly” below) ([1]; S288C PADH1-HGT1, γ-Glu-Val-Gly 100 ppm added into the medium) was “about 4.9%”, the “intracellular content of γ-Glu-Val-Gly” value ([1]; S288C, γ-Glu-Val-Gly 100 ppm added into the medium) was “about 0.9%” and the “intracellular content of γ-Glu-Val-Gly” value ([1]; S288C, γ-Glu-nVal-Gly 100 ppm added to the medium) was “about 0.09%”. The “γ-Glu-Val-Gly content in dry cells” value [2, 3] was 5 ppm, the “γ-Glu-Val-Gly content in solid content of extract” value (“γ-Glu-Val-Gly content … of extract” below) [2, 3] was 21 ppm and the “γ-Glu-Val-Gly content in dry cells” value [2, 4] was 28 ppm. The “γ-Glu-Val-Gly content … of extract” value [2, 4] was 96 ppm, the “γ-Glu-Val-Gly content in dry cells” value [2, 5] was 363 ppm and the “γ-Glu-Val-Gly content … of extract” value [2, 5] was 1110 ppm. The “γ-Glu-Val-Gly content in dry cells” value [2, 6] was 2647 ppm, the “γ-Glu-Val-Gly content … of extract” value [2, 6] was 10119 ppm and the “γ-Glu-Val-Gly content in dry cells” value [2, 7] was 5341 ppm. For the same compound, the “γ-Glu-Val-Gly content … of extract” value [2, 7] was 17408 ppm, the “γ-Glu-Val-Gly concentration of extract” value ([2]; 50 ppm γ-Glu-Val-Gly added after 19 hours, culture continued 1 hour, 400 OD units in 1.5 ml, solid content about 1%) was “about 300 ppm” and the “γ-Glu-Val-Gly content in dry cells” value [2, 8] was 10191 ppm. The “γ-Glu-Val-Gly content … of extract” value [2, 8] was 32183 ppm and the “γ-Glu-Val-Gly content in dry cells” value ([2]; γ-Glu-Val-Gly 100 ppm added to SD medium in advance, culture 16 hours) was “about 20,000 ppm”.
